From patent US20160122723A1, “ENGINEERED THREE-DIMENSIONAL SKIN TISSUES, ARRAYS THEREOF, AND METHODS OF MAKING THE SAME” (ORGANOVO, INC., priority 2014, published 2016)
Like-named read-outs stand apart in the source and are kept apart here.

Tests used:
Type in all cases: cell-based, human
[1] = system: bioprinted full thickness skin tissue; experiment: Skin irritation test, viability by alamar blue assay, 15 minute exposure, 24 well plate format (Example 5)
Excerpt: (§1) Bio-ink was generated by a cellular mixture of 100% primary adult human dermal fibroblasts (HDFa) in 8% gelatin (Novogel® 2.0) in a concentration of 50 million cells per milliliter. The cell: gelatin ratio was altered to further reduce the cellular density of the dermal sheet to better mimic dermal tissue in native skin. Three-dimensional bio-ink constructs were printed by continuous deposition using the Novogen Bioprinter® platform in a 2 mm×2 mm×0.5 mm base sheet to create a dermal structure resembling a sheet. A smaller syringe needle was used to achieve greater resolution at the reduced size. Instead of printing one 0.5 mm sheet with a 500 μm diameter syringe needle, two layers of 0.25 mm sheets printed with a 250 μm diameter needle. One tissue construct was printed per transwell-in a 24 well plate. The transwell printing surface contained a polytetrafluoroethylene (PTFE)-membrane coated with equimolar mixture of types I and III collagen (bovine) with pores 3 μm in-size. Epidermal cell paste containing a mixture of 100% primary neonatal human epidermal keratinocytes (HEKn) was then printed on top of the dermal bio-ink. Cell paste was measured post print at 96.0% viable by trypan exclusion assay. Cell number in deposited epidermal layer was estimated at 11,000 cells by cell counting on a Cell-O-Meter. Immediately following the print, constructs were placed in 4° C. for 10 minutes. This is a key step to harden the Novogel®, which helps to maintain the printed shape and improve construct to construct uniformity. Cold media was then added to the outer well of the transwell in a volume of 1 ml. The media used for subsequent growth and maintenance of the skin tissue was a 50:50 ratio of HDFa:HEKn media. The initial volume added was sufficient to submerge the structure. […] IL-1α production (R&D Systems) was analyzed in a colorimetric assays per manufacturer's protocol. Media was analyzed for lactate dehydrogenase as a marker for cytotoxicity. IL-1α production was assessed as a complementary endpoint to classic cytotoxicity testing to improve predictability of irritants. […]

[2] = system: bioprinted full thickness skin tissue; experiment: Skin irritation test, qPCR gene expression analysis (Example 4); conditions: 1% for 1 hour
Excerpt: (§2) Bio-ink was generated by a cellular mixture of 100% primary adult human dermal fibroblasts (HDFa) in 8% gelatin (Novogel® 2.0) at a concentration of 100 million cells per milliliter. The cell: gelatin ratio was altered to reduce the cellular density of the dermal sheet to better mimic dermal tissue in native skin. Three-dimensional bio-ink constructs were printed by continuous deposition using the Novogen Bioprinter® platform in a 4 mm×4 mm×0.5 mm base to create a dermal structure resembling a sheet. One tissue construct was printed per transwell in a […]. The transwell printing surface contained a polytetrafluoroethylene (PTFE) membrane coated with equimolar mixture of types I and III collagen (bovine) with pores 3 μm in size. Epidermal cell paste containing a mixture of 100% primary neonatal human epidermal keratinocytes (HEKn) was then printed on top of the dermal bio-ink. Cell paste was measured post print at 87.1% viable by trypan exclusion assay. Cell numbers in the deposited epidermal layer was estimated at 60,000 cells by cell counting on a Cell-O-Meter. Immediately following the print, constructs were placed at 4° C. for 10 minutes. Cold media was then added to the outer well of the transwell in a volume of 3 ml. The media used for subsequent growth and maintenance of the skin tissue was a 50:50 ratio of HDFa:HEKn media. The initial volume added was sufficient to submerge the structure. All subsequent media changes used warmed media (37° C.) added to the outer well of the transwell and not to the inner basket. Media was changed 48 hours later and reduced to a volume of 1.5 ml per well to bring the structure to an air-liquid interface (ALI). Media and subsequently changed 48 hours after that (day 4) at a volume of 1.5 ml. On day 5, media was changed and further reduced to 1 ml per well and subsequently changed daily. On day 10, skin tissues were subject to a skin irritation test method using 1% Triton X 100. 1% Triton X-100™ is a known irritant and reference chemical currently used in other 3D skin models. Methods were based on OECD guidelines 439 and 431 for applying human skin models to in vitro skin irritation or corrosion, respectively. On day 10, conditioned media was saved (designated time=0) and 1 ml of fresh media was added to the outer well of the transwell. The printed skin tissue was then treated with 20 μl of PBS as a negative control or with 20 μl of 1% Triton X-100™ as a positive control and known irritant. […] IL-1α production (R&D Systems) was analyzed in a colorimetric assays per manufacturer's protocol. Media was analyzed for lactate dehydrogenase as a marker for cytotoxicity. IL-1α production was assessed as a complementary endpoint to classic cytotoxicity testing to improve predictability of irritants. […]

[3] = system: bioprinted full thickness skin tissue; experiment: Skin irritation test, viability by alamar blue assay, 1 hour exposure (Example 4); conditions: 1% for 1 hour; 48 hours post treatment (day 12)
Excerpt: (§3) Bio-ink was generated by a cellular mixture of 100% primary adult human dermal fibroblasts (HDFa) in 8% gelatin (Novogel® 2.0) at a concentration of 100 million cells per milliliter. The cell: gelatin ratio was altered to reduce the cellular density of the dermal sheet to better mimic dermal tissue in native skin. Three-dimensional bio-ink constructs were printed by continuous deposition using the Novogen Bioprinter® platform in a 4 mm×4 mm×0.5 mm base to create a dermal structure resembling a sheet. One tissue construct was printed per transwell in a […]. The transwell printing surface contained a polytetrafluoroethylene (PTFE) membrane coated with equimolar mixture of types I and III collagen (bovine) with pores 3 μm in size. Epidermal cell paste containing a mixture of 100% primary neonatal human epidermal keratinocytes (HEKn) was then printed on top of the dermal bio-ink. Cell paste was measured post print at 87.1% viable by trypan exclusion assay. Cell numbers in the deposited epidermal layer was estimated at 60,000 cells by cell counting on a Cell-O-Meter. […] IL-1α production (R&D Systems) was analyzed in a colorimetric assays per manufacturer's protocol. Media was analyzed for lactate dehydrogenase as a marker for cytotoxicity. IL-1α production was assessed as a complementary endpoint to classic cytotoxicity testing to improve predictability of irritants. […]

[4] = system: bioprinted full thickness skin tissue; experiment: Skin irritation test, IL-1α production in media, colorimetric assay, 1 hour exposure (Example 4); conditions: 1% for 1 hour
Excerpt: as §2, with “ml.” for “ml. On day 5, media was changed and further reduced to 1 ml per well and subsequently changed daily. On day 10, skin tissues were subject to a skin irritation test method using 1% Triton X 100. 1% Triton X-100™ is a known irritant and reference chemical currently used in other 3D skin models. Methods were based on OECD guidelines 439 and 431 for applying human skin models to in vitro skin irritation or corrosion, respectively. On day 10, conditioned media was saved (designated time=0) and 1 ml of fresh media was added to the outer well of the transwell. The printed skin tissue was then treated with 20 μl of PBS as a negative control or with 20 μl of 1% Triton X-100™ as a positive control and known irritant.”

[5] = system: bioprinted full thickness skin tissue; experiment: Skin irritation test, LDH activity, 15 minute exposure, 24 well plate format (Example 5)
Excerpt: as §1, with “Epidermal cell paste containing a mixture of 100% primary neonatal human epidermal keratinocytes (HEKn) was then printed on top of the dermal bio-ink.” left out, “assay.” for “assay. Cell number in deposited epidermal layer was estimated at 11,000 cells by cell counting on a Cell-O-Meter. Immediately following the print, constructs were placed in 4° C. for 10 minutes. This is a key step to harden the Novogel®, which helps to maintain the printed shape and improve construct to construct uniformity. Cold media was then added to the outer well of the transwell in a volume of 1 ml. The media used for subsequent growth and maintenance of the skin tissue was a 50:50 ratio of HDFa:HEKn media. The initial volume added was sufficient to submerge the structure.”

[6] = system: bioprinted full thickness skin tissue; experiment: Skin irritation test, IL-1α production, 15 minute exposure, 24 well plate format (Example 5)
Excerpt: as §1

[7] = system: bioprinted full thickness skin tissue; experiment: Skin irritation test, macroscopic and histological analysis (H&E, CK5/IVL, CK10, collagen 3, PCNA, TUNEL) (Example 4); conditions: 1% for 1 hour
Excerpt: Bio-ink was generated by a cellular mixture of 100% primary adult human dermal fibroblasts (HDFa) in 8% gelatin (Novogel® 2.0) at a concentration of 100 million cells per milliliter. The cell: gelatin ratio was altered to reduce the cellular density of the dermal sheet to better mimic dermal tissue in native skin. Three-dimensional bio-ink constructs were printed by continuous deposition using the Novogen Bioprinter® platform in a 4 mm×4 mm×0.5 mm base to create a dermal structure resembling a sheet. One tissue construct was printed per transwell in a […]. The transwell printing surface contained a polytetrafluoroethylene (PTFE) membrane coated with equimolar mixture of types I and III collagen (bovine) with pores 3 μm in size. Epidermal cell paste containing a mixture of 100% primary neonatal human epidermal keratinocytes (HEKn) was then printed on top of the dermal bio-ink. Cell paste was measured post print at 87.1% viable by trypan exclusion assay. Cell numbers in the deposited epidermal layer was estimated at 60,000 cells by cell counting on a Cell-O-Meter. Immediately following the print, constructs were placed at 4° C. for 10 minutes. Cold media was then added to the outer well of the transwell in a volume of 3 ml. The media used for subsequent growth and maintenance of the skin tissue was a 50:50 ratio of HDFa:HEKn media. The initial volume added was sufficient to submerge the structure. All subsequent media changes used warmed media (37° C.) added to the outer well of the transwell and not to the inner basket. Media was changed 48 hours later and reduced to a volume of 1.5 ml per well to bring the structure to an air-liquid interface (ALI). Media and subsequently changed 48 hours after that (day 4) at a volume of 1.5 ml. On day 5, media was changed and further reduced to 1 ml per well and subsequently changed daily. On day 10, skin tissues were subject to a skin irritation test method using 1% Triton X 100. 1% Triton X-100™ is a known irritant and reference chemical currently used in other 3D skin models. Methods were based on OECD guidelines 439 and 431 for applying human skin models to in vitro skin irritation or corrosion, respectively. On day 10, conditioned media was saved (designated time=0) and 1 ml of fresh media was added to the outer well of the transwell. The printed skin tissue was then treated with 20 μl of PBS as a negative control or with 20 μl of 1% Triton X-100™ as a positive control and known irritant. Test substances were pipetted manually to the apical surface of the tissue. Triton X-100™ was diluted to a 1% aqueous solution in deionized water and sterile filtered through a […] filter before use. Samples were incubated for 30 minutes at 37° C. followed by 30 minutes at room temperature for a total of 60 minutes. Media was saved (designated time=1 hour). Samples were then washed extensively by PBS rinsing. Transwells were then placed in a new 6-well plate with fresh media (1 ml) added to the outer well then placed back into 37° C. overnight. The media was then changed at 24 hours and at 48 hours post treatment. Total media collected included time points=−48, 0, 1, 24, and 48 hours. IL-1α production (R&D Systems) was analyzed in a colorimetric assays per manufacturer's protocol. Media was analyzed for lactate dehydrogenase as a marker for cytotoxicity. IL-1α production was assessed as a complementary endpoint to classic cytotoxicity testing to improve predictability of irritants. Keratinocytes normally produce and release inflammatory cytokine IL-1α in response to chemical or physical stress. At 48 hours post treatment (day 12), tissues were either lysed for RNA extraction and subsequent qPCR analysis, or tested for viability by alamar blue assay then rinsed in PBS and fixed with 2% PFA for histological analysis. Alamar blue (Life Technologies) was added per manufacturer's instructions to media and incubated with tissue constructs (1 ml) at 37° C. for 3 hours. […]

[8] = system: bioprinted full thickness skin tissue; experiment: Skin irritation test, lactate dehydrogenase (LDH) activity in media, 1 hour exposure (Example 4); conditions: 1% Triton X 100 for 1 hour, apical; at 1 hour, 24 hours and 48 hours post treatment
Excerpt: as §3

For Triton X-100, the “viable compared to the PBS control (alamar blue)” value ([1]; 15 minute exposure, 5% SDS or 1% Triton X, 42 hours post treatment (day 15)) was 68.75%, the “CK1 and CK10 gene expression” value ([2]; 48 hours post exposure) was “reduced” and the “collagen production of types 1, 3, and 4 collagen (gene expression)” value ([2]; 48 hours post exposure) was “reduced”. For the same molecule, the “expression of both epidermal and dermal markers” value ([2]; 48 hours post exposure) was “dramatically reduces”, the “IL1a gene expression increase in comparison to the PBS control” value ([2]; 48 hours post treatment) was “about 3 fold” and the “reduction in viability as compared to the PBS control” value [3] was 80%. The IL-1α levels ([4]; 24 hours post treatment) was “remained high”, the IL-1α levels ([4]; 48 hours post treatment) was “returned to baseline” and the “IL-1α activity in comparison to PBS control” value ([4]; greatest difference observed 1 hour post treatment) was “increased”. The “LDH activity higher than PBS” value ([5]; 15 minute exposure, 5% SDS or 1% Triton X, 42 hours post exposure) was “about 1.4 fold”, the IL-1a production ([6]; 15 minute exposure, 5% SDS or 1% Triton X) was “induced” and the “irritancy to bioprinted skin as suggested by histology” value [7] was “irritant”. The “CK5 positive basal keratinocyte layer” value ([7]; 48 hours post treatment) was “fragmented”, the “Collagen 3 staining compared to the PBS control” value ([7]; 48 hours post treatment) was “reduction in dermal fibroblast function” and the “apoptosis by TUNEL staining in the dermal layer” value ([7]; 48 hours post treatment) was “increase in apoptosis”. For the same molecule, the “histological analysis by H&E” value ([7]; 48 hours post treatment) was “separation of the epidermal and dermal layers”, the “proliferation by PCNA staining” value ([7]; 48 hours post treatment, dermal fibroblasts and basal layer) was “reduction in proliferation” and the “induction in LDH activity compared to PBS control” value [8] was “roughly 2 fold”.

In the case of CCCCCCCCCCCCOS(=O)(=O)[O-].[Na+] [SDS], the “irritant strength under these testing conditions” value [1] was “much stronger irritant”, the “viable compared to the PBS control (alamar blue)” value [1] was 2.45% and the “LDH activity higher than PBS” value [5] was “about 1.7 fold”. The IL-1a production [6] was “induced” and the “IL-1a production, response compared between the two irritants” value [6] was “much stronger response”.
